Series [1] relates to human G-CSF (G21) promoter. The experiment in a line: High-throughput luciferase reporter assay, G-CSF promoter (Screen III). The following applies: G21 cells, 6 hours; for FOLD INDUCTION RELATIVE TO SOLVENT CONTROL, GCSF: Screen III activators; for FOLD INHIBITION RELATIVE TO SOLVENT CONTROL, GCSF: Screen III inhibitors.
For the next series, the system named is MMTV (M10) promoter. The experiment in a line: High-throughput luciferase reporter assay, MMTV promoter (Screen III). Type of series: cell-based, mouse. The following applies: M10 cells, 6 hours; for FOLD INDUCTION RELATIVE TO SOLVENT CONTROL, MMTV: Screen III activators; for FOLD INHIBITION RELATIVE TO SOLVENT CONTROL, MMTV: Screen III inhibitors. As for the experimental part:
pMluci and pSV2Neo, an antibiotic resistance plasmid (112), were co-transfected into NIH/3T3 mouse fibroblast cells using the calcium phosphate precipitation method (103) with a commercially available kit (Pharmacia, Piscataway N.J.). Two days later, cells were transferred to media containing 0.4 mg/ml G418 and were grown for an additional 10-14 days. G418-resistant clones were isolated by standard methods. Once sufficient cell numbers were obtained, clones were analyzed based on several criteria: constitutive luciferase production, induction of luciferase expression by dexamethasone (1 μm, Sigma, St. Louis, Mo.), satisfactory attachment to microtiter plates used in the high-throughput screen and acceptable standard deviation in multiple luciferase expression assays (see below for assay protocol). This analysis was carried out using the luciferase assay conditions described above. Of the clones which satisfied the above criteria for the high throuphput screen, one clone, M10, was selected for use.
(A reporter such as luciferase makes a cellular process visible.)

In series [2] the test system is human growth hormone (532) promoter. The experiment in a line: High-throughput luciferase reporter assay, human Growth Hormone promoter (Screen III). Type of series: cell-based. The following applies: 532 cells, 6 hours; for FOLD INDUCTION RELATIVE TO SOLVENT CONTROL, hGH: Screen III activators; for FOLD INHIBITION RELATIVE TO SOLVENT CONTROL, hGH: Screen III inhibitors.

For `Clc1ccc(Sc2cc(Cl)c(Cl)cc2Cl)cc1` [compound 828], the “FOLD INDUCTION RELATIVE TO SOLVENT CONTROL, GCSF” value in series [1] was 1.47 fold. Moreover, in the series on MMTV (M10) promoter, the “FOLD INDUCTION RELATIVE TO SOLVENT CONTROL, MMTV” value was 2.20 fold. Further, in series [2], the “FOLD INDUCTION RELATIVE TO SOLVENT CONTROL, hGH” value is on record as 1.34 fold.
On to `C(=Cc1ccccn1)c1ccccn1` [compound 1640], for which, in series [1], the “FOLD INHIBITION RELATIVE TO SOLVENT CONTROL, GCSF” value is recorded as 0.79 fold. Also, the “FOLD INHIBITION RELATIVE TO SOLVENT CONTROL, MMTV” value in the series on MMTV (M10) promoter is 0.59 fold. In addition, in series [2], the “FOLD INHIBITION RELATIVE TO SOLVENT CONTROL, hGH” value worked out at 5.00 fold.
Taken in the same sequence, the figures for `O=P(O)(O)Oc1c[nH]c2ccc(Br)c(Cl)c12` [compound 541] were 0.90 fold, 0.86 fold and 6.25 fold.
Regarding `N#Cc1ccc(Br)cc1` [compound 1704], in series [1], the “FOLD INHIBITION RELATIVE TO SOLVENT CONTROL, GCSF” value turned out to be 0.77 fold. Also, the “FOLD INHIBITION RELATIVE TO SOLVENT CONTROL, MMTV” value in the series on MMTV (M10) promoter amounted to 0.94 fold. The “FOLD INHIBITION RELATIVE TO SOLVENT CONTROL, hGH” value in series [2] turned out to be 4.16 fold.
In the case of `Cc1cc(N)sn1` [compound 1397], the “FOLD INDUCTION RELATIVE TO SOLVENT CONTROL, GCSF” value in series [1] was determined as 3.63 fold. In addition, in the series with MMTV (M10) promoter, the “FOLD INDUCTION RELATIVE TO SOLVENT CONTROL, MMTV” value was determined as 1.13 fold. Besides, the “FOLD INDUCTION RELATIVE TO SOLVENT CONTROL, hGH” value in series [2] was found to be 0.57 fold.
As to `O=C(O)c1ccc(Br)o1` [compound 2035], in series [1], the “FOLD INHIBITION RELATIVE TO SOLVENT CONTROL, GCSF” value stood at 0.57 fold. For the same compound, the “FOLD INHIBITION RELATIVE TO SOLVENT CONTROL, MMTV” value with MMTV (M10) promoter came to 0.89 fold. Moreover, in series [2], the “FOLD INHIBITION RELATIVE TO SOLVENT CONTROL, hGH” value was determined as 7.14 fold.
For `O=c1[nH]c(=O)c2nc3ccccc3nc2[nH]1` [compound 1890], the “FOLD INHIBITION RELATIVE TO SOLVENT CONTROL, GCSF” value in series [1] is on record as 0.80 fold. Further, the “FOLD INHIBITION RELATIVE TO SOLVENT CONTROL, MMTV” value in the series on MMTV (M10) promoter is 0.58 fold. For the same compound, the “FOLD INHIBITION RELATIVE TO SOLVENT CONTROL, hGH” value in series [2] was 5.26 fold.
Take `CCN(CC)CCCC(C)Nc1c2ccc(Cl)cc2nc2ccc(OC)cc12` (centres unmarked) [compound 423]: the “FOLD INDUCTION RELATIVE TO SOLVENT CONTROL, GCSF” value in series [1] was determined as 2.39 fold. In addition, the “FOLD INDUCTION RELATIVE TO SOLVENT CONTROL, MMTV” value in the series with MMTV (M10) promoter amounted to 0.64 fold. Further, the “FOLD INDUCTION RELATIVE TO SOLVENT CONTROL, hGH” value in series [2] is recorded as 0.56 fold.
In the same order, the values of `CCOc1ccc2nc3cc(N)ccc3c(N)c2c1` [compound 790] are 0.01 fold, 0.58 fold and 5.94 fold.
`O=C(c1ccccc1)c1ccncc1` [compound 209]: in the series with MMTV (M10) promoter, the “FOLD INHIBITION RELATIVE TO SOLVENT CONTROL, MMTV” value was 0.81 fold. In addition, the “FOLD INHIBITION RELATIVE TO SOLVENT CONTROL, hGH” value in series [2] amounted to 1.08 fold.
`O=C(O[C@H](C(=O)O)[C@H](OC(=O)c1ccccc1)C(=O)O)c1ccccc1` [compound 578]: in series [1], the “FOLD INHIBITION RELATIVE TO SOLVENT CONTROL, GCSF” value is recorded as 0.65 fold. Further, the “FOLD INHIBITION RELATIVE TO SOLVENT CONTROL, MMTV” value in the series with MMTV (M10) promoter came out at 0.91 fold. The “FOLD INHIBITION RELATIVE TO SOLVENT CONTROL, hGH” value in series [2] is listed as 4.00 fold.
For `O=C(c1ccc(O)c(O)c1)c1c(O)cc(O)cc1O` [compound 660], the “FOLD INHIBITION RELATIVE TO SOLVENT CONTROL, GCSF” value in series [1] worked out at 10.0 fold. For the same compound, in the series with MMTV (M10) promoter, the “FOLD INHIBITION RELATIVE TO SOLVENT CONTROL, MMTV” value came to 1.04 fold. Also, the “FOLD INHIBITION RELATIVE TO SOLVENT CONTROL, hGH” value in series [2] is reported as 0.34 fold.
Take `CCOC(=O)N1C(=O)c2ccccc2C1=O` [compound 237]: in series [1], the “FOLD INDUCTION RELATIVE TO SOLVENT CONTROL, GCSF” value is listed as 4.77 fold. In addition, the “FOLD INDUCTION RELATIVE TO SOLVENT CONTROL, MMTV” value in the series with MMTV (M10) promoter is 0.62 fold. In series [2], the “FOLD INDUCTION RELATIVE TO SOLVENT CONTROL, hGH” value is 0.06 fold.
In the case of `N#Cc1cccc(Br)c1` [compound 1703], the “FOLD INHIBITION RELATIVE TO SOLVENT CONTROL, GCSF” value in series [1] is 0.76 fold. The “FOLD INHIBITION RELATIVE TO SOLVENT CONTROL, MMTV” value with MMTV (M10) promoter worked out at 0.90 fold. Moreover, in series [2], the “FOLD INHIBITION RELATIVE TO SOLVENT CONTROL, hGH” value was found to be 10.00 fold.
For the compound `Cc1cc(=O)oc2cc(OCC(=O)O)ccc12` [compound 1764], the “FOLD INHIBITION RELATIVE TO SOLVENT CONTROL, GCSF” value in series [1] amounted to 0.55 fold. The “FOLD INHIBITION RELATIVE TO SOLVENT CONTROL, MMTV” value with MMTV (M10) promoter was found to be 0.82 fold. Further, the “FOLD INHIBITION RELATIVE TO SOLVENT CONTROL, hGH” value in series [2] amounted to 7.14 fold.
For the compound `Nc1nc(-c2ccccc2)cs1` [compound 1499], in series [1], the “FOLD INDUCTION RELATIVE TO SOLVENT CONTROL, GCSF” value is 0.24 fold. Besides, in the series with MMTV (M10) promoter, the “FOLD INDUCTION RELATIVE TO SOLVENT CONTROL, MMTV” value stood at 0.61 fold. For the same compound, the “FOLD INDUCTION RELATIVE TO SOLVENT CONTROL, hGH” value in series [2] is reported as 5.55 fold.
As to `Nc1ccc(C=CC(=O)O)cc1` [compound 1234], in series [1], the “FOLD INDUCTION RELATIVE TO SOLVENT CONTROL, GCSF” value was 4.97 fold. For the same compound, the “FOLD INDUCTION RELATIVE TO SOLVENT CONTROL, MMTV” value with MMTV (M10) promoter was 1.03 fold. In addition, in series [2], the “FOLD INDUCTION RELATIVE TO SOLVENT CONTROL, hGH” value was found to be 0.51 fold.
Take `COc1c(F)cc(Br)cc1[N+](=O)[O-]` [compound 2030]: the “FOLD INDUCTION RELATIVE TO SOLVENT CONTROL, GCSF” value in series [1] stood at 5.53 fold. For the same compound, the “FOLD INDUCTION RELATIVE TO SOLVENT CONTROL, MMTV” value in the series on MMTV (M10) promoter is given as 0.87 fold. In addition, the “FOLD INDUCTION RELATIVE TO SOLVENT CONTROL, hGH” value in series [2] turned out to be 0.67 fold.
